The results in this text go back to US20030188756A1, “Treatment of inflammatory bowel disease with vitamin d compounds” (priority 2002, published 2003).

Structures are written as SMILES.

Assay type in all cases: in vivo
Series [1] relates to IL-10 KO mice. Description: 1,25(OH)2D3 supplementation (0.005 μg/d, 4 weeks) of vitamin D deficient IL-10 KO mice, IBD symptoms. From the text:
(§1) MICE. Age and sex matched C57BL/6 IL-10 KO, and wildtype (WT) mice were produced in the Pennsylvania State University breeding colony; the breeding pairs were obtained from Jackson Laboratory (Bar Harbor, Me.). The animal facilities at the Pennsylvania State University are specific pathogen free and therefore breeding IL-10 KO mice was successful. All of the procedures described were reviewed and approved by the Pennsylvania State University Institutional Animal Care and Use Committee on Jan. 25, 1999, IACUC# number: 98118-A0.
(§2) DIETS. From a single pool of breeding females fed commercial mouse diet (#5105 Ralston Purina Co.), females in the second week of gestation were selected and randomly distributed into two groups. Starting pregnant dams on vitamin D deficient diet ensured that by 5 weeks of age the weanlings were vitamin D deficient (Cantorna et al. 1996). All mice were fed synthetic diets made in the laboratory (Yang et al. 1993; modification of Smith et al. 1987). The mice were vitamin D deficient, vitamin D sufficient or 1,25-dihydroxycholecalciferol supplemented. Mice were housed under yellow light to prevent the synthesis of vitamin D in skin. All of the mice were vitamin D deficient until weaning.
(§3) The 3 week old vitamin D deficient mice were randomly assigned to various treatment groups as described below. […] Experimental diets were prepared fresh and replaced every 2-3 days during the experiment. To ensure that 1,25-dihydroxycholecalciferol (1,25(OH)2D3) treated mice ate all of the 1,25(OH)2D3 provided, food cups containing 8 g of diet were replaced every other day (completely eaten) for the duration of each experiment (Cantorna et al. 1996, Cantorna et al. 1998a). In order to monitor vitamin D toxicity, 1,25(OH)2D3 supplemented mice were observed daily for signs of hypercalcemia. Symptoms of hypercalcemia monitored daily included overall health and weight loss.
In the 2nd series of experiments 3 week old vitamin D deficient mice were split into 2 groups. One group of mice was maintained on the vitamin D deficient diet and the other group was supplemented with 0.005 μg/d 1,25(OH)2D3. The vitamin D deficient and 1,25(OH)2D3 supplemented mice were sacrificed 4 weeks later at […].
SERUM MEASUREMENTS. Mice were bled at 5 weeks of age and at the end of the experiments to measure hemoglobin, calcium, and red blood cell numbers. Serum was collected every 2 weeks and serum calcium measured (normal for mice is 2.00-2.75 mmol/L). Vitamin D deficiency was also monitored by serum calcium analysis (serum calcium less then 1.75 mmol/L). Calcium (587-A) and hemoglobin (525-A) colorometric kits were from Sigma Chemical Co. (St. Louis, Mo.). Red blood cells were counted using a hemocytometer.
IBD SEVERITY. Mortality associated with the development of diarrhea was recorded in IL-10 KO and WT mice. In addition the small intestines (SI) were removed and weighed. The jejunum of the […] KO mice is visibly inflamed and has been used by others to monitor symptoms of IBD in mice (Kuhns et al. 1993). The jejunum of the SI was saved in 100 g/L formalin in phosphate buffered saline solution and sent to the Penn State Diagnostic Laboratory for sectioning and staining with hematoxyalin and eosin. Four or more paraffin sections (4 microns) from each mouse were scored using the exact procedure described by Kuhns et. al (1993). The sections were scored blindly on a scale of 0 to 5 for inflammation. […]

The subject of a further series is WT mice. Description: 1,25(OH)2D3 supplementation (0.005 μg/d, 4 weeks) of vitamin D deficient WT mice. Conditions: 0.005 μg/day 1,25(OH)2D3 for 4 weeks, mean ± SEM.
Excerpt: as §1
DIETS. […]
(§4) The 3 week old vitamin D deficient mice were randomly assigned to various treatment groups as described below. […] Symptoms of hypercalcemia monitored daily included overall health and weight loss. […]
SERUM MEASUREMENTS. […] Serum was collected every 2 weeks and serum calcium measured (normal for mice is 2.00-2.75 mmol/L). Vitamin D deficiency was also monitored by serum calcium analysis (serum calcium less then 1.75 mmol/L). […] Red blood cells were counted using a hemocytometer.
(§5) IBD SEVERITY. Mortality associated with the development of diarrhea was recorded in IL-10 KO and WT mice. […] Four or more paraffin sections (4 microns) from each mouse were scored using the exact procedure described by Kuhns et. al (1993). The sections were scored blindly on a scale of 0 to 5 for inflammation. […]

For series [2], the system named is IL-10 KO mice. Description: Short term (2 weeks, 0.2 μg/d) 1,25(OH)2D3 treatment of IL-10 KO mice started at first IBD symptoms.
Excerpt: as §1, §2, §3
In the 3rd experimental design 1,25(OH)2D3 treatment was started at the first signs of IBD symptoms (diarrhea, 7 weeks of age). Seven week old vitamin D deficient mice were split into 2 groups. One group was maintained vitamin D deficient and the other group was supplemented with 0.2 μg/d 1,25(OH)2D3. The mice were treated for 2 weeks and the 9 week old mice were sacrificed.
IBD SEVERITY. Mortality associated with the development of diarrhea was recorded in IL-10 KO and WT mice. In addition the small intestines (SI) were removed and weighed. The jejunum of the […] KO mice is visibly inflamed and has been used by others to monitor symptoms of IBD in mice (Kuhns et al. 1993). […] Four or more paraffin sections (4 microns) from each mouse were scored using the exact procedure described by Kuhns et. al (1993). The sections were scored blindly on a scale of 0 to 5 for inflammation. […]

In series [3] the test system is IL-10 KO mice. The experiment in a line: Food restriction experiment, IL-10 KO mice on cholecalciferol diet (+D restricted). Conditions: mean ± SEM.
Excerpt: as §1, §2
The 3 week old vitamin D deficient mice were randomly assigned to various treatment groups as described below. […] Experimental diets were prepared fresh and replaced every 2-3 days during the experiment. To ensure that 1,25-dihydroxycholecalciferol (1,25(OH)2D3) treated mice ate all of the 1,25(OH)2D3 provided, food cups containing 8 g of diet were replaced every other day (completely eaten) for the duration of each experiment (Cantorna et al. 1996, Cantorna et al. 1998a). […] Symptoms of hypercalcemia monitored daily included overall health and weight loss. […]
as §5

For series [4], the system named is IL-10 KO mice. The experiment in a line: Mortality and growth of IL-10 KO mice fed cholecalciferol (vitamin D sufficient) from weaning.
Excerpt: as §1
DIETS. From a single pool of breeding females fed commercial mouse diet (#5105 Ralston Purina Co.), females in the second week of gestation were selected and randomly distributed into two groups. Starting pregnant dams on vitamin D deficient diet ensured that by 5 weeks of age the weanlings were vitamin D deficient (Cantorna et al. 1996). […]
as §4, §5

Where [5] appears, read: 1,25(OH)2D3 supplemented IL-10 KO and WT mice, data not shown.
[6] abbreviates: 0.2 μg/d 1,25(OH)2D3 for 2 weeks from 7 weeks of age, mean ± SEM.
Where [7] appears, read: treatment for as little as 2 weeks.
[8] abbreviates: 5.0 μg/d cholecalciferol for 4 weeks.

Turning to `C=C1/C(=C\C=C2/CCC[C@]3(C)[C@@H]([C@H](C)CCCC(C)(C)O)CC[C@@H]23)C[C@@H](O)C[C@@H]1O` [1,25(OH)2D3, 1,25-dihydroxycholecalciferol], in the series with IL-10 KO mice [1] (setting [5]), the Erythrocyte numbers result was “normal and not different”; the Hemoglobin levels entry is “normal and not different”. Besides, the “Weight” value in the series with IL-10 KO mice [1] (IL-10 KO mice, 0.005 μg/day 1,25(OH)2D3 for 4 weeks, 9 weeks of age, mean ± SEM) worked out at 20.9 ± 0.8 g. In addition, in the series on IL-10 KO mice [1] (IL-10 KO mice, 0.005 μg/day 1,25(OH)2D3 for 4 weeks, mean ± SEM), the “Serum Calcium” value is 3.00 ± 0.30 mmol/L. The “Histology Score” value with IL-10 KO mice [1] (IL-10 KO mice, small intestine (jejunum) inflammation, scale 0 to 5, 0.005 μg/day for 4 weeks, mean ± SEM) was 1.7 ± 0.4. In addition, in the series with WT mice, the “Serum Calcium” value amounted to 2.72 ± 0.25 mmol/L. Moreover, in the series on IL-10 KO mice [2] (setting [6]), the “Small Intestine g” value is 1.08 ± 0.05 g and the “Small Intestine g/100 g body” value is on record as 5.4 ± 0.3 g/100 g body. Also, in the series on IL-10 KO mice [2] (setting [7]), the IBD symptoms result is reported as “ameliorated IBD symptoms” and the “Inflammation in the small intestine” value is reported as “reduced the inflammation”.

In the case of `C=C1CC[C@H](O)C/C1=C/C=C1\CCC[C@]2(C)[C@@H]([C@H](C)CCCC(C)C)CC[C@@H]12` [cholecalciferol], the “Weight” value in the series on IL-10 KO mice [3] (5.0 μg/d cholecalciferol for 4 weeks from 5 weeks of age) was 16.1 ± 1.1 g. Also, in the series on IL-10 KO mice [3] (setting [8]), the “Small Intestine g” value was found to be 1.00 ± 0.02 g and the “Small Intestine g/100 g body” value came to 6.2 ± 0.3 g/100 g body. Also, the Diarrhea and mortality entry in the series on IL-10 KO mice [4] (5.0 μg cholecalciferol/d from weaning (FIG. 1)) is “did not develop diarrhea or die”. The “Growth (body weight curve)” value in the series on IL-10 KO mice [4] (5.0 μg cholecalciferol/d from weaning, compared to vitamin D deficient IL-10 KO mice (FIG. 2)) is “grew rapidly”.
